Laboratory results as given in article PMC4764977, “AZD8797 is an allosteric non-competitive modulator of the human CX3CR1 receptor” (Biochemical Journal, 2016).
Where “and” joins values, the source holds several entries; their conditions need not be identical. Equal entries are not always repeated.

Legend:
CX3CR1 [1] = target: T1, CX3CR1 (Homo sapiens, UniProt P49238); parameters: method as in PMID 23516963; settings: HEK293 cells co-transfected with Gqi5-protein; read-out: Ki, 125I-CX3CL1 competition assay; cited from earlier work
T1 sequence (P49238 1-355): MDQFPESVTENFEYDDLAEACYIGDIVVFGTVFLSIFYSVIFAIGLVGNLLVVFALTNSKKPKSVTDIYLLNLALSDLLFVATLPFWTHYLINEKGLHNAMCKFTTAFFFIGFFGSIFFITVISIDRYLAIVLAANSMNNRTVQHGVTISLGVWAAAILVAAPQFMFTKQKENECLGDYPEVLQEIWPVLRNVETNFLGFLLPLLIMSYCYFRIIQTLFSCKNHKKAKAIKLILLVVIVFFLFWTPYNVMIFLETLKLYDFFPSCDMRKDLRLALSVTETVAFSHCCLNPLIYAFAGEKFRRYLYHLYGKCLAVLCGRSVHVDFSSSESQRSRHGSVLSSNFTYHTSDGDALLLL

[2] = tested on: untransfected CHO-K1 cells; test: Dynamic mass redistribution (DMR), untransfected CHO-K1 cells; type: cell-based, Chinese hamster
CX3CR1 [3] = target: T1, CX3CR1; test: 125I-CX3CL1 competition assay, HEK293 cells co-transfected with Gqi5-protein (Karlstrom et al.); type: binding; parameters: host or cells: CHO-K1; settings: HEK293 Gqi5 vs CHO-hCX3CR1 membranes
CX3CR1 [4] = tested on: CX3CR1; parameters: method as in PMID 24706865; settings: cited from earlier work
CX3CR1 [5] = target: T1, CX3CR1; test: [35S]GTPγS accumulation assay, CHO-hCX3CR1 membranes; type: biochemical; parameters: host or cells: CHO-K1
Procedure: Adherent CHO-K1 cells stably expressing human CX3CR1 (CHO-hCX3CR1) were grown in F12 medium with GlutaMAX, 10% FBS (Sigma–Aldrich) and 400 μg·ml^−1 geneticin and harvested at 80% confluency. Cells were washed in PBS and lysed with an Ultra-Turrax Homogenizer in 50 mM Tris/HCl (pH 7.4) and 1 mM EDTA with Complete™ protease inhibitor (Roche). After centrifugation at 1000 g for 10 min, membranes were collected by ultracentrifugation at 100000 g for 45 min at 4°C. The membranes were resuspended in 10 mM Tris/HCl (pH 7.4), 1 mM EDTA and 10% sucrose, divided into aliquots, frozen in liquid nitrogen and stored in −80°C. Protein concentration was determined using the BCA method (Thermo Fisher Scientific).
0.56 μCi·ml^−1 [^35S]GTPγS and EC80 of CX3CL1 were then added. The plate was incubated at 30°C for 1 h and subsequently unbound [^35S]GTPγS was separated from bound by vacuum filtration to a Printed Filtermat B (PerkinElmer) using a Skatron Micro96 harvester and dried at 50°C for 1 h. The filters were soaked with a melt-on scintillator sheet (MeltiLex, PerkinElmer), sealed using a MeltiLex heat sealer and measured in a MicroBeta Trilux reader (PerkinElmer).

[6] = target: T2, CX3CR1 (human whole blood leucocytes) (Homo sapiens, UniProt P49238); test: Cellix flow adhesion of hWB leucocytes to full-length CX3CL1; type: cell-based; settings: flow 2.25 dyn·cm^−2, 60 min pre-incubation, n=2, read-out: IC50, prevention of capture (adhesion) of human blood leucocytes to CX3CL1
T2 construct: hWB with heparin as anti-coagulant was collected from healthy donors; from tissue; host or cells: human whole blood leucocytes (healthy volunteers)
T2 sequence (P49238 1-355): T1 sequence (P49238 1-355)
Procedure: (§1) Adhesion of a human B-lymphocyte cell line (RPMI-8226) or hWB leucocytes to full-length human CX3CL1 were monitored using a microfluidics Cellix VenaFlux platform and Vena 8 Biochips (Cellix). Each channel on the Vena 8 chip was coated with anti-His monoclonal antibody (R&D Systems) followed by His-tagged full-length CX3CL1 (R&D Systems) and blocked for non-specific binding (NSB) with BSA.
(§2) Cell preparations: RPMI-8226 cells were cultured in RPMI 1640 medium with GlutaMAX and 20% FBS (HyClone, Perbio). Before the experiment, cells were centrifuged at 320 g and resuspended to 5 ×10^6 cells·ml^−1 in RPMI 1640 with 1% FBS. hWB with heparin as anti-coagulant was collected from healthy donors and 5 μM DiOC6 was added. AZD8797 was diluted in a 3-fold series in DMSO starting at 3.3 or 30 μM and pre-incubated with RPMI-8226 cells for 15 min or whole blood for 60 min. DMSO concentration held constant for all AZD8797 concentrations (0.1% for the RPMI-8226 experiments and 0.3% for the whole blood experiments). […]
(§3) RPMI-8226 cells in RPMI 1640+1% FBS or whole blood were pumped through the channels at 0.5 dyn·cm^−2 and 2.25 dyn·cm^−2 respectively, for 3 min. Images for quantification were captured using a microscope. Cells adhering to channels were counted and the mean values across five images in each channel were used for calculating the concentration–response curves.

[7] = target: T3, CX3CR1 (RPMI-8226 cells endogenously expressing human CX3CR1) (Homo sapiens, UniProt P49238); test: Cellix flow adhesion of RPMI-8226 cells to full-length CX3CL1; type: cell-based; settings: flow 0.5 dyn·cm^−2, 15 min pre-incubation, n=3; read-out: IC50, prevention of capture (adhesion) of RPMI-8226 cells to CX3CL1
T3 construct: RPMI-8226 cells, a human B-lymphocyte cell line endogenously expressing human CX3CR1; CCL-155; host or cells: RPMI-8226
T3 sequence (P49238 1-355): T1 sequence (P49238 1-355)
Procedure: as §1, §2, §3

CX3CR1 [8] = target: T1, CX3CR1; test: PathHunter β-arrestin recruitment assay, CHO-K1 CX3CR1 β-arrestin cell line; type: cell-based; parameters: host or cells: CHO-K1
Procedure: β-Arrestin recruitment was measured using the PathHunter™ enzyme fragment complementation assay from DiscoveRx and carried out according to the manufacturer's instructions. In short, 3500 cells per well in Opti-MEM were incubated together with different concentrations of AZD8797 and CX3CL1 in a 384-well plate. After 90 min of incubation at 37°C, detection reagent was added and incubation continued for 1 h at room temperature, before reading the plate with a Victor^2 luminescence plate reader (PerkinElmer). As in the [^35S]GTPγS binding assay, the final DMSO concentration was held constant at 1%.

CX3CR1 [9] = target: T1, CX3CR1; test: Equilibrium saturation binding, CHO-hCX3CR1 membranes; parameters: host or cells: CHO-K1
Procedure: Cells were washed in PBS and lysed with an Ultra-Turrax Homogenizer in 50 mM Tris/HCl (pH 7.4) and 1 mM EDTA with Complete™ protease inhibitor (Roche). […] Protein concentration was determined using the BCA method (Thermo Fisher Scientific). […] The filter plate was washed in ice-cold 25 mM HEPES (pH 7.4), 5 mM MgCl2, 1 mM CaCl2 and 500 mM NaCl and dried at 50°C for 1 h. Scintillation cocktail, Optiphase Supermix (PerkinElmer) was added to each well and the radioactivity was measured using a MicroBeta Trilux reader (PerkinElmer). […] The DMSO concentration was held constant at 1%. where Kd is the radioligand dissociation constant. Saturation binding isotherms were analysed by non-linear regression and globally fitted to a hyperbolic one-site binding model taking into account both NSB and total binding to calculate the total receptor number (Bmax) and radioligand dissociation constant (Kd): […] NSB=NS·X+Background, where NS is the concentration-dependent NSB. To visualize the manner of binding of CX3CL1 and AZD8797, a diagnostic affinity ratio plot designed to compare strictly competitive behaviour with allosteric interactions was used. […] For single site competitive interactions, the resulting linear plot has the slope of 1.0. For allosteric but competitive interactions, the slope will start at 1.0 but progressively deviate from unity, eventually reaching a limit governed by the allosteric ternary complex model co-operativity factor α [21, 22].

[10] = increasing concentrations of unlabelled compound

With CC(C)C[C@H](CO)Nc1nc(S[C@@H](C)c2ccccc2)nc2nc(N)sc12 [AZD8797] as the molecule, how does the Ki (CX3CR1 [1]) read?
Its Ki is 4 nM.

And the “DMR response in untransfected cells” value [2]?
Its value is 38 % of AZD8797 effect in transfected cells.

What about the “DMR response in untransfected cells (words)” value [2] of the same molecule?
The value was “only weakly responded”.

And the “Higher affinity than in this paper's 125I-CX3CL1 competition assay” value (CX3CR1 [3])?
The value was roughly 100 fold.

And the “Efficacy in rat model for multiple sclerosis” value (CX3CR1 [4])?
Its value is “efficacy”.

What about the “Agonistic effect in [35S]GTPγS accumulation” value (CX3CR1 [5]; compound alone, results not shown) of the same molecule?
The value was “No agonistic effect”.

What about the IC50 (CX3CR1 [5]; response from 2 nM CX3CL1 (EC80), n > 24, read-out: IC50, inhibition of CX3CL1-induced [35S]GTPγS accumulation) of the same molecule?
Its IC50 is 340 nM.

What about the IC50 [6] of the same molecule?
The IC50 was 330 nM.

And the IC50 [7]?
The IC50 was 6 nM and 5.8 nM.

And the “Increase of CX3CL1 efficacy in β-arrestin recruitment” value (CX3CR1 [8]; 16 and 140 nM AZD8797, efficacy enhanced, not potency)?
The value was roughly 2 fold.

And the “Effect on β-arrestin recruitment, compound alone” value (CX3CR1 [8]; AZD8797 alone)?
The value was “no effect”.

And the “CX3CL1-induced β-arrestin recruitment at higher concentrations” value (CX3CR1 [8]; higher concentrations of AZD8797)?
Its value is “almost abolished”.

And the “Effect on Bmax of 125I-CX3CL1 saturation binding” value (CX3CR1 [9]; [10])?
The value was “decreased”.

What about the “Effect on Kd of 125I-CX3CL1 saturation binding” value (CX3CR1 [9]; [10]) of the same molecule?
Its value is “without any effect”.

And the Kd (CX3CR1 [9]; one-site model, n=4)?
Its Kd is 12 nM.
